Reference: patent US11136321B2, “Tricyclic compounds” (ALIGOS THERAPEUTICS, INC., priority 2019, dated 2021)
pEC50: −log10 of the molar value.

Test system: HBV
Experiment: HBV-DNA antiviral assay using HepG2.117 cells
Format: cell-based, genotype D HBV
Details: Hepatitis B virus, 72 h, intracellular HBV DNA by qPCR, 3 days incubation
Description: The following assay procedure describes the HBV antiviral assay, using HepG2.117 cells, which carry a stably integrated genotype D HBV genome under the control of a Tet-off promoter, and intracellular HBV DNA quantification as endpoint. Cell viability is assessed in parallel by measuring the intracellular ATP content using ATPlite (Perkin Elmer).
On day 0, HepG2.117 cells (which are maintained in routine cell culture with doxycycline present in the medium at a final concentration of 1 μg/mL) were seeded in 96-well plates (white with clear bottom) at a density of 2.0×10^4 cells/well (0.1 mL/well) in medium without doxycycline to induce pgRNA transcription and subsequent formation of HBV particles. The cells were incubated at 37° C. and 5% CO2.
On day 1, medium was removed from each well, the test articles were diluted in culture medium without doxcycyline and 100 μL was added to cell culture wells (9 concentrations, 4-fold dilution). For each plate, 6 untreated (merely DMSO) wells were included. The final concentration of DMSO in the culture medium was 2%. Each plate was prepared in duplicate (one for HBV DNA extraction, one for ATPlite measurement). The cells were incubated at 37° C. and 5% CO2 for 3 days.
On day 4, cell viability was assessed using ATPlite and cell lysates were prepared for HBV DNA extraction and subsequent quantification by qPCR.
Medium was removed from each well and 100 μL of 0.33% NP-40 in H2O was added to each well. Plates were sealed, incubated at 4° C. for 5 mins, vortexed extensively and centrifuged briefly. Next, 35 μL of lysate was added to 65 μL QuickExtract DNA Extraction Solution (Epicentre) in a PCR plate for each well. PCR plate was incubated at 65° C. for 6 mins, 98° C. for 2 mins and finally cooled to 4° C. HBV DNA was then quantified by qPCR with HBV-specific primers and probes as specified in Table 1 using the Bio-Rad SSOAdvanced Universal Probes Supermix on a CFX96 machine (Bio-Rad). The PCR cycle program consisted of 95° C. for 3 mins, followed by 40 cycles at 95° C. for 10 sec and 60° C. for 30 sec.
A DNA standard was prepared by dilution of an IDT gBlock corresponding to the amplicon with concentrations ranging from 10^2 to 10^8 copies/input (i.e. per 4 μL) and used to generate a standard curve by plotting Cq values vs. HBV DNA standard concentration. The quantity of HBV DNA in each sample was determined by interpolating from the standard curve.
Cell viability was calculated as follows: % Cell viability=(luminescence value of test sample)/(average luminescence value of 2% DMSO control)×100%. HBV DNA inhibition was calculated as follows: 100−(HBV DNA copy number of test sample)/(average HBV DNA copy number of 2% DMSO control)×100%. No normalization to entecavir was required due to the excellent dynamic window of this assay. The CC50, EC50 and EC90 values were determined by dose-response curves fitted by GraphPad Prism using “log (agonist) vs. response—Variable slope”.

SMILES	pEC50
NC(=O)c1ccc(-n2c(=O)c3c(n4ncc(Cc5ccccc5)c24)CN(C(=O)c2ccc(Br)c(Cl)c2)CC3)cc1 [Compound 75, 4-[5-benzyl-12-(4-bromo-3-chloro-benzoyl)-8-oxo-2,3,7,12-tetrazatricyclo [7.4.0.0 2,6]trideca-1(9),3,5-trien-7-yl] benzamide]	5.30 to 6.30
O=C(c1ccc(Br)c(Cl)c1)N1CCc2c(n3ncc(Cc4ccccc4)c3n(-c3ccc(-c4ncc[nH]4)cc3)c2=O)C1 [Compound 90, 5-benzyl-12-(4-bromo-3-chloro-benzoyl)-7-[4-(1H-imidazol-2-yl)phenyl]-2,3,7,12-tetrazatricyclo [7.4.0.0 2,6] trideca-1(9),3,5-trien-8-one]	5.30 to 6.30
N#Cc1cc(C(=O)N2CCc3c(n4ncc(Cc5ccccc5)c4n(-c4ccc(C(=O)NC5CC5)cc4)c3=O)C2)ccc1Br [Compound 76, 4-[5-benzyl-12-(4-bromo-3-cyano-benzoyl)-8-oxo-2,3,7,12-tetrazatricyclo [7.4.0.0 2,6]trideca-1(9),3,5-trien-7-yl]-N-cyclopropyl-benzamide]	< 5.30
CNC(=O)c1ccc(-n2c(=O)c3c(n4ncc(NCc5ccc(F)cc5)c24)CN(C(=O)c2ccc(Br)c(Cl)c2)CC3)cc1 [Compound 67, 4-[12-(4-bromo-3-chloro-benzoyl)-5-[(4-fluorophenyl)methylamino]-8-oxo-2,3,7,12-tetrazatricyclo [7.4.0.0 2,6]trideca-1(9),3,5-trien-7-yl]-N-methyl-benzamide]	≥ 7.00
CC(C)CNc1cnn2c3c(c(=O)n(-c4ccccc4)c12)CCN(C(=O)c1ccc(Cl)c(Cl)c1)C3 [Compound 15, 12-(3,4-dichlorobenzoyl)-5-(isobutylamino)-7-phenyl-2,3,7,12-tetrazatricyclo [7.4.0.0^2,6] trideca-1(9),3,5-trien-8-one]	< 5.30
CC(C)c1cnn2c3c(c(=O)n(-c4ccccc4)c12)CCN(C(=O)c1ccc(Br)c(Cl)c1)C3 [Compound 13, 12-(4-bromo-3-chlorobenzoyl)-5-isopropyl-7-phenyl-2,3,7,12-tetraazatricyclo[7.4.0.0^[2,6]]trideca-1(9),3,5-trien-8-one]	5.30 to 6.30
CCNC(=O)c1ccc(-n2c(=O)c3c(n4ncc(Cc5ccccc5)c24)CN(C(=O)c2ccc(Br)c(C#N)c2)CC3)cc1 [Compound 62, 4-[5-benzyl-12-(4-bromo-3-cyano-benzoyl)-8-oxo-2,3,7,12-tetrazatricyclo [7.4.0.0 2,6]trideca-1(9),3,5-trien-7-yl]-N-ethyl-benzamide]	5.30 to 6.30
COc1ccc(-n2c(=O)c3c(n4ncc(NC(=O)c5ccccc5)c24)CN(C(=O)c2ccc(Br)c(Cl)c2)CC3)cc1 [Compound 30, N-[12-(4-bromo-3-chloro-benzoyl)-7-(4-methoxyphenyl)-8-oxo-2,3,7,12-tetrazatricyclo [7.4.0.0 2,6]trideca-1(9),3,5-trien-5-yl] benzamide]	6.30 to 7.00
CNC(=O)c1ccc(-n2c(=O)c3c(n4ncc(Cc5ccccc5)c24)CN(C(=O)c2ccc(Br)c(C#N)c2)[C@@H](C)C3)cc1 (stereo in doubt) [Compound 80, N-methyl-4-[rac-(11S)-5-benzyl-12-(4-bromo-3-cyano-benzoyl)-11-methyl-8-oxo-2,3,7,12-tetrazatricyclo [7.4.0.0 2,6]trideca-1(9),3,5-trien-7-yl] benzamide]	6.30 to 7.00
CNC(=O)c1ccc(-n2c(=O)c3c(n4ncc(NCc5ccc(OC(F)(F)F)cc5)c24)CN(C(=O)c2ccc(Br)c(Cl)c2)CC3)cc1 [Compound 45, 4-[12-(4-bromo-3-chloro-benzoyl)-8-oxo-5-[[4-(trifluoromethoxy)phenyl]methylamino]-2,3,7,12-tetrazatricyclo [7.4.0.0 2,6]trideca-1(9),3,5-trien-7-yl]-N-methyl-benzamide]	≥ 7.00
CNC(=O)c1ccc(-n2c(=O)c3c(n4ncc(Cc5ccc(OC)cc5F)c24)CN(C(=O)c2ccc(Br)c(C#N)c2)CC3)cc1 [Compound 86, 4-[12-(4-bromo-3-cyano-benzoyl)-5-[(2-fluoro-4-methoxy-phenyl)methyl]-8-oxo-2,3,7,12-tetrazatricyclo [7.4.0.0 2,6]trideca-1(9),3,5-trien-7-yl]-N-methyl-benzamide]	6.30 to 7.00
CNC(=O)c1ccc(-n2c(=O)c3c(n4ncc(Cc5ccc(C#N)cc5)c24)CN(C(=O)c2ccc(Br)c(Cl)c2)CC3)cc1 [Compound 43, 4-(8-(4-bromo-3-chlorobenzoyl)-3-(4-cyanobenzyl)-5-oxo-6,7,8,9-tetrahydropyrazolo[1,5-a]pyrido[4,3-e]pyrimidin-4(5H)-yl)-N-methylbenzamide]	≥ 7.00
CNC(=O)c1ccc(-n2c(=O)c3c(n4ncc(NCc5ccc(OCC(N)=O)cc5)c24)CN(C(=O)c2ccc(Cl)c(Cl)c2)CC3)cc1 [Compound 53, 4-[5-[[4-(2-amino-2-oxo-ethoxy)phenyl]methylamino]-12-(3,4-dichlorobenzoyl)-8-oxo-2,3,7,12-tetrazatricyclo [7.4.0.0 2,6]trideca-1(9),3,5-trien-7-yl]-N-methyl-benzamide]	5.30 to 6.30
CNC(=O)c1ccc(-n2c(=O)c3c(n4ncc(NCc5ccccc5F)c24)CN(C(=O)c2ccc(Br)c(C#N)c2)CC3)cc1 [Compound 69, 4-[12-(4-bromo-3-cyano-benzoyl)-5-[(2-fluorophenyl)methylamino]-8-oxo-2,3,7,12-tetrazatricyclo [7.4.0.0 2,6]trideca-1(9),3,5-trien-7-yl]-N-methyl-benzamide]	6.30 to 7.00
CNC(=O)c1ccc(-n2c(=O)c3c(n4ncc(NCc5ccc(OCC(N)=O)cc5)c24)CN(C(=O)c2ccc(Br)c(Cl)c2)CC3)cc1 [Compound 52, 4-[5-[[4-(2-amino-2-oxo-ethoxy)phenyl]methylamino]-12-(4-bromo-3-chloro-benzoyl)-8-oxo-2,3,7,12-tetrazatricyclo [7.4.0.0 2,6]trideca-1(9),3,5-trien-7-yl]-N-methyl-benzamide]	6.30 to 7.00
CNC(=O)c1ccc(-n2c(=O)c3c(n4ncc(NCc5ccc(F)cc5)c24)CN(C(=O)c2ccc(Br)c(C#N)c2)CC3)cc1 [Compound 70, 4-[12-(4-bromo-3-cyano-benzoyl)-5-[(4-fluorophenyl)methylamino]-8-oxo-2,3,7,12-tetrazatricyclo [7.4.0.0 2,6]trideca-1(9),3,5-trien-7-yl]-N-methyl-benzamide]	6.30 to 7.00
CNC(=O)c1ccc(-n2c(=O)c3c(n4ncc(Cc5ccc(C#N)cc5F)c24)CN(C(=O)c2ccc(Br)c(C#N)c2)CC3)cc1 [Compound 84, 4-[12-(4-bromo-3-cyano-benzoyl)-5-[(4-cyano-2-fluoro-phenyl)methyl]-8-oxo-2,3,7,12-tetrazatricyclo [7.4.0.0 2,6]trideca-1(9),3,5-trien-7-yl]-N-methyl-benzamide]	5.30 to 6.30
O=C(c1ccc(Br)c(Cl)c1)N1CCc2c(n3ncc(Cc4ccccc4)c3n(-c3ccc(-n4cccn4)cc3)c2=O)C1 [Compound 77, 5-benzyl-12-(4-bromo-3-chloro-benzoyl)-7-(4-pyrazol-1-ylphenyl)-2,3,7,12-tetrazatricyclo [7.4.0.0 2,6] trideca-1(9),3,5-trien-8-one]	< 5.30

Same assay, conditions: intracellular HBV DNA by qPCR, 3 days incubation

SMILES	pEC50
O=C(c1ccc(Br)c(Cl)c1)N1CCc2c(n3nccc3n(-c3ccccc3)c2=O)C1 [Compound 5, 12-(4-bromo-3-chlorobenzoyl)-7-phenyl-2,3,7,12-tetraazatricyclo[7.4.0.0^[2,6]]trideca-1(9),3,5-trien-8-one]	5.30 to 6.30
